Assay results published in BindingDB's records for doi:10.1021/np500198g (University of Tuebingen, 2014).

Target: T1, Prostaglandin G/H synthase 2 (Homo sapiens, UniProt P35354)
T1 sequence (P35354 whole entry): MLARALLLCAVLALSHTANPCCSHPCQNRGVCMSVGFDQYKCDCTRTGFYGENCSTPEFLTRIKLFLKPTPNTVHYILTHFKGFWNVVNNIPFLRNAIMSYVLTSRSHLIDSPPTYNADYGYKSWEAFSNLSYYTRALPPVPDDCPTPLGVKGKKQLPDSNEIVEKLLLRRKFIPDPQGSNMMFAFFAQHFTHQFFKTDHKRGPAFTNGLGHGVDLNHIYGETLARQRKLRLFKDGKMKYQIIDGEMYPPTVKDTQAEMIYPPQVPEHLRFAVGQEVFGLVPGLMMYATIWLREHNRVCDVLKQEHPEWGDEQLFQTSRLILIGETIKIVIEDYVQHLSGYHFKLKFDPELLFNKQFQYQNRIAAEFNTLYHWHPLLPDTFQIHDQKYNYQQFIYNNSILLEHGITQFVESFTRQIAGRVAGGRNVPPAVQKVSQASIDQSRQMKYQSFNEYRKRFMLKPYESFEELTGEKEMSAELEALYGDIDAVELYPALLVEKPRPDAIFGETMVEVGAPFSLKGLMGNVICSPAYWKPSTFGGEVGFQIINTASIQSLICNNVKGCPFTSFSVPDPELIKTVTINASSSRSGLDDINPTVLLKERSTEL
Experiment: Inhibition of human recombinant COX-2 using arachidonic acid as substrate preincubated for 5 mins followed by substrate addition measured after 5 mins by HPLC analysis

CC(C)=CCC[C@H](C(=O)O)[C@@H]1CC[C@]2(C)C3=C(CC[C@@]12C)[C@@]1(C)CC[C@@H](O)C(C)(C)[C@@H]1CC3
IC50: > 10 µM
